Legend:
Experiment in all cases: viability relative to DMSO control (fraction); higher = less drug effect (more viable cells)
Conditions in all cases: 48 h
[1] = system: primary ALL patient cells (S048)
Procedure, shortened: (§1)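 Viability was measured as CellTiter-Glo luminescence relative to the median of 16 inner DMSO wells. Primary mononuclear tumour cells, fresh or cryopreserved, were Ficoll-isolated from blood or bone marrow or taken from processed lymph node. They were seeded at 4 × 10^4 cells per well into 384-well plates holding pre-plated compounds at five concentrations, one well each, and kept in RPMI-1640 with penicillin/streptomycin, L-glutamine and human serum at 37 °C and 5% CO2 for 48 h.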

[2] = system: primary ALL patient cells (S088)
Procedure, shortened: as §1

[3] = system: primary AML patient cells (S009)
Procedure, shortened: as §1

[4] = system: primary AML patient cells (S055)
Procedure, shortened: as §1

[5] = system: primary AML patient cells (S056)
Procedure, shortened: as §1

[6] = system: primary AML patient cells (S060)
Procedure, shortened: as §1

[7] = system: primary AML patient cells (S071)
Procedure, shortened: as §1

[8] = system: primary AML patient cells (S072)
Procedure, shortened: as §1

[9] = system: primary AML patient cells (S079)
Procedure, shortened: as §1

[10] = system: primary B-PLL patient cells (S016)
Procedure, shortened: as §1

[11] = system: primary BL patient cells (S005)
Procedure, shortened: as §1

[12] = system: primary CLL patient cells (S031)
Procedure, shortened: as §1

[13] = system: primary DLBCL patient cells (S082)
Procedure, shortened: as §1

[14] = system: primary FL patient cells (S022)
Procedure, shortened: as §1

[15] = system: primary FL patient cells (S087)
Procedure, shortened: as §1

[16] = system: primary MCL patient cells (S041)
Procedure, shortened: as §1

[17] = system: primary MCL patient cells (S063)
Procedure, shortened: as §1

[18] = system: primary MCL patient cells (S068)
Procedure, shortened: as §1

[19] = system: primary T-PLL patient cells (S008)
Procedure, shortened: as §1

[20] = system: primary MCL patient cells (S053)
Procedure, shortened: as §1

C[C@@H](Oc1cc(-c2cnn(C3CCNCC3)c2)cnc1N)c1c(Cl)ccc(F)c1Cl [Crizotinib]
viability ([1]; 0.024 µM): 0.999 | viability ([1]; 0.12 µM): 1.04 | viability ([1]; 0.6 µM): 0.989 | viability ([1]; 3 µM): 0.638 | viability ([1]; 15 µM): 0.0947 | viability ([2]; 0.024 µM): 0.93 | viability ([2]; 0.12 µM): 0.956 | viability ([2]; 0.6 µM): 0.798 | viability ([2]; 3 µM): 0.568 | viability ([2]; 15 µM): 0.0811 | viability ([3]; 0.024 µM): 0.984 | viability ([3]; 0.12 µM): 0.895 | viability ([3]; 0.6 µM): 0.761 | viability ([3]; 3 µM): 0.57 | viability ([3]; 15 µM): 0.147 | viability ([4]; 0.024 µM): 0.948 | viability ([4]; 0.12 µM): 0.954 | viability ([4]; 0.6 µM): 0.999 | viability ([4]; 3 µM): 0.683 | viability ([4]; 15 µM): 0.524 | viability ([5]; 0.024 µM): 1.13 | viability ([5]; 0.12 µM): 0.919 | viability ([5]; 0.6 µM): 1.07 | viability ([5]; 3 µM): 0.857 | viability ([5]; 15 µM): 0.084 | viability ([6]; 0.024 µM): 0.926 | viability ([6]; 0.12 µM): 0.931 | viability ([6]; 0.6 µM): 0.931 | viability ([6]; 3 µM): 0.841 | viability ([6]; 15 µM): 0.445 | viability ([7]; 0.024 µM): 0.879 | viability ([7]; 0.12 µM): 0.837 | viability ([7]; 0.6 µM): 0.556 | viability ([7]; 3 µM): 0.363 | viability ([7]; 15 µM): 0.0351 | viability ([8]; 0.024 µM): 0.903 | viability ([8]; 0.12 µM): 0.983 | viability ([8]; 0.6 µM): 0.838 | viability ([8]; 3 µM): 0.602 | viability ([8]; 15 µM): 0.127 | viability ([9]; 0.024 µM): 0.977 | viability ([9]; 0.12 µM): 0.953 | viability ([9]; 0.6 µM): 0.872 | viability ([9]; 3 µM): 0.659 | viability ([9]; 15 µM): 0.256 | viability ([10]; 0.024 µM): 0.971 | viability ([10]; 0.12 µM): 0.944 | viability ([10]; 0.6 µM): 0.874 | viability ([10]; 3 µM): 0.88 | viability ([10]; 15 µM): 0.255 | viability ([11]; 0.024 µM): 0.975 | viability ([11]; 0.12 µM): 0.986 | viability ([11]; 0.6 µM): 0.905 | viability ([11]; 3 µM): 0.766 | viability ([11]; 15 µM): 0.309 | viability ([12]; 0.024 µM): 1.1 | viability ([12]; 0.12 µM): 1.08 | viability ([12]; 0.6 µM): 1.12 | viability ([12]; 3 µM): 0.712 | viability ([12]; 15 µM): 0.194 | viability ([13]; 0.024 µM): 0.975 | viability ([13]; 0.12 µM): 0.989 | viability ([13]; 0.6 µM): 1.01 | viability ([13]; 3 µM): 0.916 | viability ([13]; 15 µM): 0.36 | viability ([14]; 0.024 µM): 1.09 | viability ([14]; 0.12 µM): 1.06 | viability ([14]; 0.6 µM): 1.09 | viability ([14]; 3 µM): 0.959 | viability ([14]; 15 µM): 0.377 | viability ([15]; 0.024 µM): 0.979 | viability ([15]; 0.12 µM): 1.03 | viability ([15]; 0.6 µM): 0.999 | viability ([15]; 3 µM): 0.821 | viability ([15]; 15 µM): 0.111 | viability ([16]; 0.024 µM): 0.97 | viability ([16]; 0.12 µM): 1 | viability ([16]; 0.6 µM): 0.879 | viability ([16]; 3 µM): 0.79 | viability ([16]; 15 µM): 0.221 | viability ([17]; 0.024 µM): 0.942 | viability ([17]; 0.12 µM): 1.03 | viability ([17]; 0.6 µM): 1 | viability ([17]; 3 µM): 0.896 | viability ([17]; 15 µM): 0.254 | viability ([18]; 0.024 µM): 0.989 | viability ([18]; 0.12 µM): 1.22 | viability ([18]; 0.6 µM): 1.58 | viability ([18]; 3 µM): 1.72 | viability ([18]; 15 µM): 0.816 | viability ([19]; 0.024 µM): 0.983 | viability ([19]; 0.12 µM): 1.02 | viability ([19]; 0.6 µM): 0.969 | viability ([19]; 3 µM): 0.955 | viability ([19]; 15 µM): 0.655

CN1CC[C@H](c2c(O)cc(O)c3c(=O)cc(-c4ccccc4Cl)oc23)[C@H](O)C1 [Flavopiridol]
viability ([1]; 0.0032 µM): 0.998 | viability ([1]; 0.016 µM): 1 | viability ([1]; 0.08 µM): 1.1 | viability ([1]; 0.4 µM): 0.535 | viability ([1]; 2 µM): 0.0207 | viability ([2]; 0.0032 µM): 0.955 | viability ([2]; 0.016 µM): 0.916 | viability ([2]; 0.08 µM): 1.08 | viability ([2]; 0.4 µM): 0.0921 | viability ([2]; 2 µM): 0.0295 | viability ([3]; 0.0032 µM): 0.95 | viability ([3]; 0.016 µM): 0.898 | viability ([3]; 0.08 µM): 0.619 | viability ([3]; 0.4 µM): 0.199 | viability ([3]; 2 µM): 0.0899 | viability ([5]; 0.0032 µM): 0.928 | viability ([5]; 0.016 µM): 0.75 | viability ([5]; 0.08 µM): 0.367 | viability ([5]; 0.4 µM): 0.065 | viability ([5]; 2 µM): 0.0807 | viability ([6]; 0.0032 µM): 0.949 | viability ([6]; 0.016 µM): 0.937 | viability ([6]; 0.08 µM): 0.848 | viability ([6]; 0.4 µM): 0.127 | viability ([6]; 2 µM): 0.0228 | viability ([7]; 0.0032 µM): 0.914 | viability ([7]; 0.016 µM): 0.833 | viability ([7]; 0.08 µM): 0.54 | viability ([7]; 0.4 µM): 0.0926 | viability ([7]; 2 µM): 0.0942 | viability ([8]; 0.0032 µM): 1.17 | viability ([8]; 0.016 µM): 1.05 | viability ([8]; 0.08 µM): 0.754 | viability ([8]; 0.4 µM): 0.156 | viability ([8]; 2 µM): 0.0607 | viability ([9]; 0.0032 µM): 1.01 | viability ([9]; 0.016 µM): 0.979 | viability ([9]; 0.08 µM): 0.878 | viability ([9]; 0.4 µM): 0.112 | viability ([9]; 2 µM): 0.0261 | viability ([10]; 0.0032 µM): 0.932 | viability ([10]; 0.016 µM): 0.862 | viability ([10]; 0.08 µM): 0.959 | viability ([10]; 0.4 µM): 0.217 | viability ([10]; 2 µM): 0.0227 | viability ([11]; 0.0032 µM): 0.794 | viability ([11]; 0.016 µM): 1.26 | viability ([11]; 0.08 µM): 0.644 | viability ([11]; 0.4 µM): 0.534 | viability ([11]; 2 µM): 0.983 | viability ([12]; 0.0032 µM): 1.04 | viability ([12]; 0.016 µM): 0.914 | viability ([12]; 0.08 µM): 0.963 | viability ([12]; 0.4 µM): 0.0407 | viability ([12]; 2 µM): 0.0147 | viability ([13]; 0.0032 µM): 1.03 | viability ([13]; 0.016 µM): 0.977 | viability ([13]; 0.08 µM): 1.11 | viability ([13]; 0.4 µM): 0.103 | viability ([13]; 2 µM): 0.0254 | viability ([14]; 0.0032 µM): 1.04 | viability ([14]; 0.016 µM): 0.958 | viability ([14]; 0.08 µM): 0.995 | viability ([14]; 0.4 µM): 0.227 | viability ([14]; 2 µM): 0.187 | viability ([15]; 0.0032 µM): 0.967 | viability ([15]; 0.016 µM): 0.91 | viability ([15]; 0.08 µM): 1 | viability ([15]; 0.4 µM): 0.644 | viability ([15]; 2 µM): 0.638 | viability ([16]; 0.0032 µM): 1.01 | viability ([16]; 0.016 µM): 0.914 | viability ([16]; 0.08 µM): 0.892 | viability ([16]; 0.4 µM): 0.0723 | viability ([16]; 2 µM): 0.0378 | viability ([20]; 0.0032 µM): 1.02 | viability ([20]; 0.016 µM): 0.938 | viability ([20]; 0.08 µM): 0.951 | viability ([20]; 0.4 µM): 0.469 | viability ([20]; 2 µM): 0.627 | viability ([17]; 0.0032 µM): 0.987 | viability ([17]; 0.016 µM): 0.935 | viability ([17]; 0.08 µM): 0.887 | viability ([17]; 0.4 µM): 0.269 | viability ([17]; 2 µM): 0.0178 | viability ([18]; 0.0032 µM): 0.98 | viability ([18]; 0.016 µM): 0.982 | viability ([18]; 0.08 µM): 0.82 | viability ([18]; 0.4 µM): 0.0704 | viability ([18]; 2 µM): 0.0301 | viability ([19]; 0.0032 µM): 0.953 | viability ([19]; 0.016 µM): 1.03 | viability ([19]; 0.08 µM): 0.916 | viability ([19]; 0.4 µM): 0.804 | viability ([19]; 2 µM): 0.0718

— the supplement of paper PMC10733146
